# Assays:
# [1] = tested on: PTEN; assay: Western blot of p-PTEN/total PTEN ratio in toxin-treated SH-SY5Y cells; format: cell-based, human
# Experimental: (§1) SH-SY5Y cells were maintained in Dulbecco's modified medium (DMEM) supplemented with 10% FBS, 100 IU/mL penicillin and […] streptomycin at 37 °C under 5% CO2. Toxins (Sigma) were freshly prepared and added to the cultures and incubated for various lengths of time.
# (§2) Blots were incubated with antibodies against PTEN, Phospho-PTEN, and Caspase-3 (Cell Signaling) followed by secondary antibodies and enhanced chemiluminescent detection (Amersham Biosciences).
# PTEN and phosphorylated PTEN (p-PTEN) were determined by using western blot analysis. FIG. 6C show PTEN activity was determined by comparing the ratio of p-PTEN/total PTEN. A decrease in p-PTEN/total PTEN is correlated with higher PTEN activity. Results were analyzed by Image J software and p-PTEN/total PTEN results were shown graphically. […] Substantia nigra pars compacta were dissected and harvested for western blot analysis as previously described.
# [2] = tested on: human neuroblastoma SH-SY5Y; assay: Cell viability, CellTiter 96 Aqueous One Solution Cell Proliferation Assay; format: cell-based
# Experimental: as §1
# To measure cell viability and apoptosis CellTiter 96 Aqueous One Solution Cell Proliferation Assay (Promega) and propidium iodide (Sigma) were used, respectively.
# [3] = tested on: Caspase-3; assay: Western blot of Caspase-3 active metabolite in SH-SY5Y cells; format: cell-based, human; conditions: high (mM) doses of MPP+, 24 hrs
# Experimental: as §1, §2
# [4] = tested on: PINK1 promoter; assay: PINK1 promoter analysis, Dual Glo Luciferase Assay in transfected HEK293 cells; format: cell-based, human; conditions: promoter alone vs no promoter (pGL2-basic) or SV40 promoter (pGL2-control); HEK293, 48 hrs; p<0.05
# Experimental: HEK293 cells were transfected with PINK1pr2220 and various controls for 48 hrs. Promoter activity was determined using Dual Glo Luciferase Assay system (Promega) and normalized against renilla luciferase.
# In FIG. 3(A) the results are represented as the level of firefly luciferase activity driven by the PINK1 promoter normalized against renilla luciferase activity from a second plasmid used to control for transfection variability. Each experiment was replicated in triplicate, and the entire study was replicated on at least two separate occasions. […] Co-transfection with PTEN induced PINK1 promoter activity from 65% to 5 fold in various replicate experiments compared with PINK1 alone (**p<0.05; two-tailed t-test), while a PTEN point-mutant which lacks lipid phosphatase activity (1 mPTEN) had no effect.
# Data is the result of triplicate experiments analyzed relative to promoter activity of PINK1pr2220 alone (*p<0.05; two-tailed t-test).
# All plasmids were kept at constant amounts and ratios, with empty plasmid replacing constructs not used for individual studies. Data is the result of triplicate experiments analyzed relative to promoter activity of PINK1pr2220 alone (*p<0.05; two-tailed t-test).
molecule,measurement,setting,value
"NCCc1cc(O)c(O)cc1O [6-OHDA, 6-hydroxydopamine]",p-PTEN/total PTEN ratio,[1]; n=4,lower p-PTEN/total PTEN ratio
same,cell viability,[2]; 6-OHDA,reduced cell viability
C[n+]1ccc(-c2ccccc2)cc1 [MPP+],p-PTEN/total PTEN ratio,"[1]; 24 hrs, escalating high doses of MPP+ (mM)",No change
same,p-PTEN/total PTEN ratio,"[1]; low dose MPP+ (100 μM), various time points",reduction
same,cell viability,[2]; MPP+ 24 hr treatment,reduced cell viability
same,cleavage of Caspase-3 active metabolites,[3],not cleaved
"PINK1 promoter: 2220bp human DNA sequence upstream of the PINK1 transcriptional start site, driving firefly luciferase",PINK1 promoter activity (firefly luciferase normalized against renilla luciferase),[4],significant promoter activity
